Assay results reported in US20240116877A1, “KIT KINASE INHIBITORS AND METHODS OF USE THEREOF” (Deciphera Pharmaceuticals, LLC, priority 2021, published 2024).
Like-named read-outs stand apart in the source and are kept apart here.

Key:
c-KIT kinase (uKIT) = c-KIT kinase (uKIT) (Homo sapiens (Human), UniProt P10721); assay: Biochemical Assay for uKIT (coupled pyruvate kinase/lactate dehydrogenase assay); settings: Inhibition of biochemical activity of uKIT kinase; 1 mM ATP
Procedure: Biochemical Assay for uKIT
Activity of c-KIT kinase (SEQ. ID NO. 1 or SEQ. ID NO. 2) was determined spectroscopically using a coupled pyruvate kinase/lactate dehydrogenase assay that continuously monitors the ATP hydrolysis-dependent oxidation of NADH (e.g., Schindler et al. Science (2000) 289: 1938-1942). Assays were conducted in 384-well plates (100 μL final volume) using 16 nM (Decode, SEQ ID No. 1) or 4.36 nM (Signal Chem, SEQ. ID No. 2), 0.7 mg/mL PE4Y substrate, 1.5 units pyruvate kinase, 2.1 units lactate dehydrogenase, 1 mM phosphoenol pyruvate, 0.28 mM NADH and 1 mM ATP in assay buffer (100 mM Tris, pH 7.5, 15 mM MgCl2, 0.5 mM DTT, 0.1% octyl-glucoside, 0.002% (w/v) BSA, and 0.002% Triton X-100). Inhibition of KIT was measured by adding serial diluted test compound (final assay concentration of 1% DMSO). A decrease in absorption at 340 nm was monitored continuously for 6 h at 30° C. on a multi-mode microplate reader (BioTek). The reaction rate was calculated using the 2-3 h time frame. The reaction rate at each concentration of compound was converted to percent inhibition using controls (i.e., reaction with no test compound and reaction with a known inhibitor) and IC50 values were calculated using software routines in Prism (GraphPad software).

GIST 430 cells = assay: GIST 430 Cell Proliferation Assay (resazurin); assay type: cell-based; settings: Homo sapiens; GIST430 cell proliferation
Procedure: GIST 430 Cell Proliferation Assay
(§1) A serial dilution of test compound was dispensed into a 96-well black clear bottom plate (Corning, Corning, NY). Five thousand cells were added per well in 200 μL complete growth medium. Plates were incubated for 115 h at 37 degrees Celsius, 5% CO2, 95% humidity. At the end of the incubation period 40 μL of a 440 μM solution of resazurin (Sigma, St. Louis, MO) in PBS was added to each well and incubated for an additional 5 h at 37 degrees Celsius, 5% CO2, 95% humidity. Plates were read on a Synergy2 reader (Biotek, Winooski, VT) using an excitation of 540 nm and an emission of 600 nm. Data was analyzed using Prism software (Graphpad, San Diego, CA) to calculate IC50 values.

Ba/F3 KIT mutant cells = assay: Ba/F3 mutant KIT Cell Proliferation Assays (resazurin); assay type: cell-based; settings: Mus musculus, BaF3
Procedure: Ba/F3 KIT Mutant Cell Line Transduction and Expansion
Several different KIT cDNA encoding various primary and secondary mutations were cloned into a pLV(Exp]-CMV>(cDNA):IRES:puro vector. These vectors were constructed and packaged by VectorBuilder.
Exponentially grown Ba/F3 cells (1×10^6 cells in 1 ml medium) were infected with 60 μl of viral suspension in a 6-well plate in the presence of mIL-3 (10 ng/ml) and polybrene (7.5 μg/ml) (Vector Builder) and incubated for 16 h. After 16 h, the cells were centrifuged, and viral supernatant was discarded. The cells were then re-suspended in fresh medium and allowed to recover for another day. After 72 h post infection, the cells were seeded with complete medium with mIL-3 and with 1 μg/ml puromycin added to medium for selection. After 48 h, cells without viral infection die, whereas successfully transduced cells were collected and changed to fresh medium with 5 ng/ml of IL-3. After a week or two with gradual withdrawal of mIL3 the cells that can continue to proliferate in the absence of mIL3 were exponentially expanded and were frozen down for banking.
Ba/F3 mutant KIT Cell Proliferation Assays
as §1, with “a 384-well” for “a 96-well”, “NY). Six hundred and twenty-five” for “NY). Five thousand”, “in 50” for “in 200”, “for 68” for “for 115”, “at 37° C.,” for “at 37 degrees Celsius,”, “period 10” for “period 40”

[1] = Ba/F3 KIT AYdup mutant cell proliferation, read-out: AYdup IC50
[2] = Ba/F3 KIT AYdup-D816G mutant cell proliferation, read-out: AYdup-D816G IC50
[3] = Ba/F3 KIT AYdup-V654A mutant cell proliferation, read-out: AYdup-V654A IC50
[4] = Ba/F3 KIT exon11del-V654A mutant cell proliferation, read-out: exon11del-V654A IC50
[5] = Ba/F3 KIT exon11del-Y823D mutant cell proliferation, read-out: exon11del-Y823D IC50

Sequence of c-KIT kinase (uKIT) (P10721 other isoform, or with tags, fused parts or gaps): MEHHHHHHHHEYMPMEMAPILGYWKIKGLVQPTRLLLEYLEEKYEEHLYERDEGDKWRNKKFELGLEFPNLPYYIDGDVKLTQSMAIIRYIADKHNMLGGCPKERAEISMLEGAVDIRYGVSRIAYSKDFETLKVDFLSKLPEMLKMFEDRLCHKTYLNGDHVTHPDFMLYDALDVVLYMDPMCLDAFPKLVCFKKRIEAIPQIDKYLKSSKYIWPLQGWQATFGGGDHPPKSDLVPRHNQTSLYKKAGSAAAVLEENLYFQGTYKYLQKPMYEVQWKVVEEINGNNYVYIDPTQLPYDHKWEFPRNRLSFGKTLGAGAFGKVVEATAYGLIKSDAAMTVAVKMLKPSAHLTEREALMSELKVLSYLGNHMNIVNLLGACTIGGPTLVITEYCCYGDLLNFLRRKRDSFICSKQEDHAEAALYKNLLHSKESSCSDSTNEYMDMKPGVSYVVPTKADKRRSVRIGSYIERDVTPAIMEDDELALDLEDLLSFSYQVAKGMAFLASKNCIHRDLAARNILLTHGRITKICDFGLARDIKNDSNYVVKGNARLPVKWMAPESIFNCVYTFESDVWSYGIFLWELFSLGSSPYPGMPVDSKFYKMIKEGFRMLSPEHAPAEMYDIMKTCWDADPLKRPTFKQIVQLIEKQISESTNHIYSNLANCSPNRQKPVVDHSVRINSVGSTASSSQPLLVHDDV

Structure (SMILES) | IC50 (c-KIT kinase (uKIT)) [nM] | IC50 (Ba/F3 KIT mutant cells; [1]) [nM] | IC50 (Ba/F3 KIT mutant cells; [2]) [nM] | IC50 (Ba/F3 KIT mutant cells; [3]) [nM] | IC50 (Ba/F3 KIT mutant cells; [4]) [nM] | IC50 (Ba/F3 KIT mutant cells; [5]) [nM] | IC50 (GIST 430 cells) [nM]
COCCOc1cc(F)c2c(Nc3ccc(NC(=O)CCC(C)(C)C)cc3)ncnc2c1 [Example 3, N-(4-((5-fluoro-7-(2-methoxyethoxy)quinazolin-4-yl)amino)phenyl)-4,4-dimethylpentanamide] | 10 to 100 |  |  |  |  |  | 100 to 1000
COCCOc1cc(F)c2c(Nc3ccc(NC(=O)CC(=O)NCC(C)(C)C)cc3)ncnc2c1 [Example 4, N1-(4-((5-fluoro-7-(2-methoxyethoxy)quinazolin-4-yl)amino)phenyl)-N3-neopentylmalonamide] | 10 to 100 | 10 to 100 | 10 to 100 | 10 to 100 | 10 to 100 | 10 to 100 | ≤ 10
COCCOc1cc(F)c2c(Nc3ccc(NC(=O)CC(=O)NCC(C)(C)OC)cc3)ncnc2c1 [Example 5, N^1-(4-((5-fluoro-7-(2-methoxyethoxy)quinazolin-4-yl)amino)phenyl)-N^3-(2-methoxy-2-methylpropyl)malonamide] | 10 to 100 |  |  | 10 to 100 | 10 to 100 | > 1000 | 10 to 100
CC(C)Oc1cc(F)c2c(Nc3ccc(NC(=O)NCCC(C)(C)F)cc3)ncnc2c1 [Example 6, 1-(3-fluoro-3-methylbutyl)-3-(4-((5-fluoro-7-isopropoxyquinazolin-4-yl)amino)phenyl)urea] | ≤ 10 |  |  | 100 to 1000 | ≤ 10 | 100 to 1000 | 10 to 100
CO[C@@H](C)COc1cc(F)c2c(Nc3ccc(NC(=O)NCCC(C)(C)F)cc3)ncnc2c1 [Example 7, (S)-1-(3-fluoro-3-methylbutyl)-3-(4-((5-fluoro-7-(2-methoxypropoxy)quinazolin-4-yl)amino)phenyl)urea] | ≤ 10 |  |  | 10 to 100 | 10 to 100 | 10 to 100 | 10 to 100
COCCOc1cc(F)c2c(Nc3ccc(NC(=O)NC4CCC(C(F)(F)F)CC4)cc3)ncnc2c1 (centres unmarked) [Example 15] | ≤ 10 |  | 10 to 100 | 10 to 100 | 10 to 100 | 100 to 1000 | 10 to 100
COCCOc1cc(F)c2c(Nc3ccc(NC(=O)CCCC(C)(C)C)cc3)ncnc2c1 [Example 16] | ≤ 10 |  | ≤ 10 | 10 to 100 | ≤ 10 | 10 to 100 | ≤ 10
COCCOc1cc(F)c2c(Nc3ccc(NC(=O)NCCC(C)(C)OC)nc3)ncnc2c1 [Example 24] | 100 to 1000 |  |  |  |  |  | 100 to 1000
COCCOc1cc(F)c2c(Nc3ccc(NC(=O)NC4CC(C)(C)C4)nc3)ncnc2c1 [Example 25] | 100 to 1000 |  |  | > 1000 | > 1000 |  | > 1000
COCCOc1cc(F)c2c(Nc3ccc(NC(=O)CCC(C)(C)OC)cc3)ncnc2c1 [Example 28] | 10 to 100 |  | 10 to 100 | 10 to 100 | 10 to 100 | 100 to 1000 | 10 to 100
COCCOc1cc(F)c2c(Nc3ccc(NC(=O)NCCC(C)(C)F)nc3)ncnc2c1 [Example 29] | 100 to 1000 |  | > 1000 | > 1000 | > 1000 | > 1000 | 100 to 1000

Now from value to compound, other results behind:

IC50 (c-KIT kinase (uKIT)) [nM] | IC50 (Ba/F3 KIT mutant cells; [1]) [nM] | IC50 (Ba/F3 KIT mutant cells; [2]) [nM] | IC50 (Ba/F3 KIT mutant cells; [3]) [nM] | IC50 (Ba/F3 KIT mutant cells; [4]) [nM] | IC50 (Ba/F3 KIT mutant cells; [5]) [nM] | Structure (SMILES) | IC50 (GIST 430 cells) [nM]
≤ 10 |  |  |  |  |  | COCCOc1cc(F)c2c(Nc3ccc(NC(=O)NCCC(C)(C)C(F)(F)F)cc3)ncnc2c1 [Example 1, 1-(4-((5-fluoro-7-(2-methoxyethoxy)quinazolin-4-yl)amino)phenyl)-3-(4,4,4-trifluoro-3,3-dimethylbutyl)urea] | ≤ 10
≤ 10 | ≤ 10 | 10 to 100 | 10 to 100 | 10 to 100 | 100 to 1000 | COCCOc1cc(F)c2c(Nc3ccc(NC(=O)NCCC(C)(C)F)cc3)ncnc2c1 [Example 2, 1-(3-fluoro-3-methylbutyl)-3-(4-((5-fluoro-7-(2-methoxyethoxy)quinazolin-4-yl)amino)phenyl)urea] | 10 to 100
≤ 10 | ≤ 10 | 10 to 100 | 10 to 100 | 10 to 100 | 100 to 1000 | COCCOc1cc(F)c2c(Nc3ccc(NC(=O)NC4CC(C)(C)C4)cc3)ncnc2c1 [Example 8] | 10 to 100
≤ 10 | ≤ 10 | ≤ 10 | ≤ 10 | ≤ 10 | 10 to 100 | COCCOc1cc(F)c2c(Nc3ccc(NC(=O)NCCC(C)(C)C)cc3)ncnc2c1 [Example 9] | ≤ 10
≤ 10 | ≤ 10 | ≤ 10 | 10 to 100 | ≤ 10 | 10 to 100 | COCCOc1cc(F)c2c(Nc3ccc(NC(=O)NCCC(C)(C)OC)cc3)ncnc2c1 [Example 10] | ≤ 10
10 to 100 |  |  |  |  |  | COCCOc1cc(F)c2c(Nc3ccc(NC(=O)NCC4COC4)cc3)ncnc2c1 [Example 11] | 100 to 1000
10 to 100 |  |  |  |  |  | COCCOc1cc(F)c2c(Nc3ccc(NC(=O)NC4CCOCC4)cc3)ncnc2c1 [Example 12] | 100 to 1000
10 to 100 |  |  |  |  |  | COCCOc1cc(F)c2c(Nc3ccc(NC(=O)NCC4CCOCC4)cc3)ncnc2c1 [Example 13] | 10 to 100
10 to 100 |  |  |  |  |  | COCCOc1cc(F)c2c(Nc3ccc(NC(=O)N[C@@H]4CCOC4)cc3)ncnc2c1 [Example 14] | 100 to 1000
≤ 10 |  |  |  |  |  | COCCOc1cc(F)c2c(Nc3ccc(NC(=O)NCCC4(C(F)(F)F)CC4)cc3)ncnc2c1 [Example 17] | ≤ 10
≤ 10 | ≤ 10 | ≤ 10 | ≤ 10 | ≤ 10 | 10 to 100 | COCCOc1cc(F)c2c(Nc3ccc(NC(=O)NCCC(C)C)cc3)ncnc2c1 [Example 18] | 10 to 100
≤ 10 | ≤ 10 | ≤ 10 | ≤ 10 | 10 to 100 | 100 to 1000 | COCCOc1cc(F)c2c(Nc3ccc(NC(=O)NCCC4CC4)cc3)ncnc2c1 [Example 19] | 10 to 100
≤ 10 |  |  |  |  |  | COCCOc1cc(F)c2c(Nc3ccc(NC(=O)NCCC4CCCC4)cc3)ncnc2c1 [Example 21] | ≤ 10
≤ 10 |  |  |  |  |  | COCCOc1cc(F)c2c(Nc3ccc(NC(=O)NCCC4CC(F)(F)C4)cc3)ncnc2c1 [Example 22] | ≤ 10
100 to 1000 |  |  |  |  |  | COCCOc1cc(F)c2c(Nc3ccc(NC(=O)CCC(C)(C)F)cc3)ncnc2c1 [Example 23] | 100 to 1000
≤ 10 | ≤ 10 | ≤ 10 | 10 to 100 | 10 to 100 | 10 to 100 | COCCOc1cc(F)c2c(Nc3ccc(NC(=O)NCCC(C)(C)C#N)cc3)ncnc2c1 [Example 26] | 10 to 100
100 to 1000 |  |  | > 1000 | > 1000 |  | COCCOc1cc(F)c2c(Nc3ccc(NC(=O)NCCC4COC4)cc3)ncnc2c1 [Example 27] | > 1000
